Data published in paper PMC9237960, “Identification of a New Antifungal Peptide W1 From a Marine Bacillus amyloliquefaciens Reveals Its Potential in Controlling Fungal Plant Diseases” (Frontiers in Microbiology, 2022).
In brackets after ≈: the same amount, converted by molar mass. Peptide text beside a SMILES is read from it.

System: F. oxysporum
Type: cell-based, Fusarium oxysporum
Details: pH 9.73
Experimental: The minimum inhibitory concentration (MIC) of W1 against F. oxysporum and S. sclerotiorum was determined using the paper disk diffusion method ([Wen et al., 2014]; [Rao et al., 2015]). In brief, the purified W1 was diluted into 20 mM piperazine buffer (pH 9.73) with final concentrations of 0.464, 0.232, 0.116, 0.058, and 0.029 μg/μl, respectively. On paper disks placed 2 cm from the hyphal margin of fungus on a PDA plate, 60 μl of serially diluted samples were added. Later, the plate was incubated at 30°C for 24–48 h. The MIC was determined as the lowest concentration of W1 that could inhibit visible mold growth and was calculated as the total peptide concentration added to each paper disk (microgram per disk). The piperazine buffer (20 mM) was used as the blank control. All assays were repeated three times independently.

MIC against F. oxysporum: 58 µg/mL (≈ 24 µM)
SMILES: CC[C@H](C)[C@H](NC(=O)[C@H](CC(C)C)NC(=O)[C@H](CC(C)C)NC(=O)[C@H](Cc1ccccc1)NC(=O)[C@H](Cc1ccc(O)cc1)NC(=O)[C@H](CC(C)C)NC(=O)[C@@H](NC(=O)[C@H](C)NC(=O)[C@H](Cc1ccccc1)NC(=O)[C@H](CCSC)NC(=O)[C@H](CC(C)C)NC(=O)[C@@H](NC(=O)[C@@H](NC(=O)[C@@H]1CCCN1C(=O)[C@@H](NC(=O)[C@@H](NC(=O)[C@@H](NC(=O)CN)[C@@H](C)O)[C@@H](C)CC)C(C)C)[C@@H](C)CC)[C@@H](C)CC)C(C)C)C(=O)N[C@@H](CCCNC(=N)N)C(=O)N1CCC[C@H]1C(=O)N[C@@H](CCC(N)=O)C(=O)O [W1] (H-GTIVPIILMFAVLYFLLIRPQ-OH)
